Experiments:
[1] = test system: hepatic glucose metabolism; assay: Mouse MIDA model for liver glucose metabolism; assay type: in vivo; conditions: prednisolone 10 mg/kg, Org 214007-0 1.5 mg/kg; for glucokinase flux rate / gluconeogenic flux (de novo synthesis of glucose-6-phosphate) / glucose-6-phosphatase flux / glycogen phosphorylase flux / glycogen synthase flux rate / liver glucose balance / liver glycogen balance / metabolic clearance rate of blood glucose: 7 days p.o.; for fasting blood glucose levels vs vehicle: oral daily 7 days
Method: Eighteen hours after the last oral treatment and 9 hours after start of starvation, blood samples were taken from the tail vein and directly used for glucose measurements using “One touch Ultra” glucose meter from Lifescan EuroFlash (Lifescan Benelux Beerse, Belgium). The mouse MIDA study was performed as described previously by van Dijk et al., [52]. […] On the third day, mice were cannulated in the right jugular vein. After 7 days of treatment, mice were placed in small Plexiglas cages, which allowed collection of blood samples frequently in freely moving mice. Twenty four hours after the final dose and after a 9 hours starving period, a tail vein blood sample was used for a glucose measurement after which mice were shortly anesthetized to attach the infusion lines before the experiment. Filter paper was placed under the wired floor cages to collect urine samples and replaced hourly. Mice received an infusion of a sterilized aqueous solution containing [U-^13C]glucose (13 μmol/ml), [2-^13C]glycerol (160 μmol/ml), [1-^2H]galactose (33 μmol/ml) and paracetamol (1 mg/ml) at a rate of 0.54 ml/hr for 6 hours. During the experiment blood glucose was measured and blood spots for GCMS measurements were collected from tail tips just before the start of the infusion and at hourly intervals. Blood spots and urine filter papers were air-dried and stored at room temperature until analysis. Glucose and paracetamol-glucuronic acid (Par-GLcUa) were extracted from blood spot and urine filter papers, respectively, derivatised, and measured by GC-MS, essentially as described previously, [52]. The fractional isotopomer distribution according to GC-MS was corrected for fractional distribution due to the natural abundance of ^13C by multiple linear regression to obtain the excess mole fraction of mass isotopomers M0-M6 due to incorporation of infused labeled carbohydrates. From isotope dilution and infusion rates, the flux rates of the following metabolic pathways could be calculated: 1) de novo synthesis of G6P, 2) glucokinase, 3) glucose-6-phosphatase, 4) glycogenolysis, and 5) glycogen synthesis. The method of calculation was performed as described before, [52], [53].

[2] = target: T1, human androgen receptor (AR) (Homo sapiens, UniProt P10275); assay: CHO steroid receptor reporter assay, AR / MMTV-Luc; assay type: cell-based
T1 construct: expressed in transfected cells; host or cells: CHO K1
T1 sequence (P10275 1-920): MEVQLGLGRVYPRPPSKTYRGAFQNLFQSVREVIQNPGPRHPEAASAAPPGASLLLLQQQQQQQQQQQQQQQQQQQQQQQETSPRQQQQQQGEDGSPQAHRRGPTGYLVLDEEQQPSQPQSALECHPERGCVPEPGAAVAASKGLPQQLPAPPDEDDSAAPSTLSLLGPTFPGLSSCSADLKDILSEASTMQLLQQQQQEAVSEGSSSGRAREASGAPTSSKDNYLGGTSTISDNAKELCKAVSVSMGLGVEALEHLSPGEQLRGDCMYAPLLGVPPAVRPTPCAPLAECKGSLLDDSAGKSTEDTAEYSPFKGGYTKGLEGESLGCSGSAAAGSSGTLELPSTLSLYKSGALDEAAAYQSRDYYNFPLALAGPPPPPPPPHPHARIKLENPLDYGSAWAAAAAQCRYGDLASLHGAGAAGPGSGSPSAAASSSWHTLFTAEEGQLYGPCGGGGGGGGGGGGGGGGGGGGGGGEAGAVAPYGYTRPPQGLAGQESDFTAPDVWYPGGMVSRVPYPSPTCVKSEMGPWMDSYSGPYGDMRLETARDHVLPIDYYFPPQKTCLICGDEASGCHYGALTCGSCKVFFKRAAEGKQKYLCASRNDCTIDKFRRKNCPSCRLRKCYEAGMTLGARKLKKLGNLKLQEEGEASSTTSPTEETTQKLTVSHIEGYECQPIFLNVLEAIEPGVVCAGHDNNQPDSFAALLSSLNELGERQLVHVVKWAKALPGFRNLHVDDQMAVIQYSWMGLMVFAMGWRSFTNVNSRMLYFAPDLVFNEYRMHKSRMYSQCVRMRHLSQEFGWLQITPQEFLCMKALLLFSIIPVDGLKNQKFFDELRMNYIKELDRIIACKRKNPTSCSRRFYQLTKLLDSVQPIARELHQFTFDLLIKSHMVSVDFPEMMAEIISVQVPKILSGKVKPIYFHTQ
From the text: For monitoring both human steroid receptor agonistic as well as antagonistic activity of compounds, Chinese hamster ovary (CHO) K1 cells stably co-transfected with the specific human steroid receptor and its respective reporter construct were used (as previously described).
For human glucocorticoid receptor (GR)-specific activity CHO-GR B4.8 cells containing both recombinant human GR as well as a reporter construct consisting of the mouse mammary tumor virus (MMTV) promotor and the luciferase reporter gene, were used. Compound was incubated alone (in the agonistic setup) or with 50 nM dexamethasone (in the antagonistic setup) overnight. Hereafter, 200 µl medium was removed and 50 µl luciferine substrate solution from the LucLite luminescence kit (Packard, Meriden, USA) was added. […] Percentage maximal antagonistic efficacy was related to the maximal antagonistic efficacy of reference GR antagonist Org 34116. Similar procedures were followed for the other human steroid receptor assays (for more detailed information see Supportive Information) (SI text).
Similar procedures were followed for the other human steroid receptor assays containing combinations of human progesterone receptor B (PR-B) and MMTV-Luc, human androgen receptor (AR) and MMTV-Luc, human chimeric glucocorticoid-mineralocorticoid receptor (GGM, Trapp et al. (1994), Neuron 13: 1457) and MMTV-Luc, human estrogen receptor alpha (ERα) and rat oxytocin-Luc (45), and human estrogen receptor beta (ERβ) and rat oxytocin-Luc, respectively.

[3] = 30 mg/kg, mouse CIA experiment; cited from earlier work

EC50 ([2]; read-out: EC50 (agonist)) [nM] | IC50 ([2]; read-out: IC50 (antagonist)) [nM] | % agonist potency ([2]; relative to reference compound) [%] | % antagonist potency ([2]; relative to reference compound) [%] | Structure (SMILES) | glucokinase flux rate [1] | gluconeogenic flux (de novo synthesis of glucose-6-phosphate) [1] | glucose-6-phosphatase flux [1] | glycogen phosphorylase flux [1] | glycogen synthase flux rate [1] | liver glucose balance [1] | liver glycogen balance [1] | metabolic clearance rate of blood glucose [1] | fasting blood glucose levels vs vehicle [1] | serum insulin levels [3]
> 100 | > 1000 | <0.13 | <3.83 | Cc1nnsc1C(=O)N[C@H]1CCN2c3ccc(C#N)cc3[C@@H](C)c3ccccc3[C@@H]2C1 [Org 214007-0] | no significant effects | Neither Org 214007-0 nor prednisolone, at equi-efficacious dosages, effects | Neither the glucose-6-phosphatase flux (A) nor the glycogen phosphorylase flux (B) were affected | Neither the glucose-6-phosphatase flux (A) nor the glycogen phosphorylase flux (B) were affected | no significant effects | not affected | not effected | Neither Org 214007-0 nor prednisolone, at equi-efficacious dosages, effects | did not affect | –
– | – | – | – | C[C@]12C=CC(=O)C=C1CC[C@@H]1[C@@H]2[C@@H](O)C[C@@]2(C)[C@H]1CC[C@]2(O)C(=O)CO [prednisolone, reference compound] | significantly decreased | no change | Neither the glucose-6-phosphatase flux (A) nor the glycogen phosphorylase flux (B) were affected | Neither the glucose-6-phosphatase flux (A) nor the glycogen phosphorylase flux (B) were affected | significantly decreased | significantly changed | significantly changed | Neither Org 214007-0 nor prednisolone, at equi-efficacious dosages, effects | significantly elevated | significantly elevated

From paper PMC3495945, “Org 214007-0: A Novel Non-Steroidal Selective Glucocorticoid Receptor Modulator with Full Anti-Inflammatory Properties and Improved Therapeutic Index” (PLoS ONE, 2012)
